In patent US12077503B2, “Substituted cyclic amides and their use as herbicides” (FMC CORPORATION, priority 2015, dated 2024):
Like-named read-outs stand apart in the source and are kept apart here.

Experiments:
Assay type in all cases: in vivo
[1] = system: ragweed (common ragweed, Ambrosia elatior); assay: Test A postemergence; conditions: Ambrosia artemisiifolia, post-emergence, 240 h, postemergence; for pest or weed control at 125 g/ha: 125 g ai/ha; for pest or weed control at 500 g/ha: 500 g ai/ha, 0 to 100 scale, 0 is no effect, 100 is complete control
Method in brief: (§1)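 Greenhouse, ~10 d after spray; visual injury vs untreated controls, 0 = no effect, 100 = complete control. Preemergence: directed soil spray over planted seeds. Postemergence: plants 2–10 cm, 1–2 leaf stage. Loam/sand blend. Compound in non-phytotoxic solvent with surfactant.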

[2] = system: blackgrass (Alopecurus myosuroides); assay: Test A postemergence; conditions: Alopecurus myosuroides, post-emergence, 240 h, postemergence, read-out: Blackgrass plant response rating; for pest or weed control at 125 g/ha: 125 g ai/ha, visual injury on 0 to 100 scale (0 no effect, 100 complete control), approx. 10 d; for pest or weed control at 500 g/ha: 500 g ai/ha, 0 to 100 scale, 0 is no effect, 100 is complete control
Method in brief: as §1

[3] = system: ryegrass, Italian (Italian ryegrass, Lolium multiflorum); assay: Test A postemergence; conditions: Lolium multiflorum, post-emergence, 240 h, postemergence; for pest or weed control at 125 g/ha: 125 g ai/ha; for pest or weed control at 500 g/ha: 500 g ai/ha, 0 to 100 scale, 0 is no effect, 100 is complete control
Method in brief: as §1

corn (Zea mays) = assay: Test A postemergence; conditions: Zea mays, post-emergence, 240 h, postemergence, read-out: Corn plant response rating; for plant injury at 125 g/ha: 125 g ai/ha, visual injury on 0 to 100 scale (0 no effect, 100 complete control), approx. 10 d; for plant injury at 500 g/ha: 500 g ai/ha, 0 to 100 scale, 0 is no effect, 100 is complete control
Method in brief: as §1

[4] = system: Galium (catchweed bedstraw, Galium aparine); assay: Test A postemergence; conditions: Galium, post-emergence, 240 h, postemergence, read-out: Galium plant response rating; for pest or weed control at 125 g/ha: 125 g ai/ha, visual injury on 0 to 100 scale (0 no effect, 100 complete control), approx. 10 d; for pest or weed control at 500 g/ha: 500 g ai/ha, 0 to 100 scale, 0 is no effect, 100 is complete control
Method in brief: as §1

[5] = system: giant foxtail (Setaria faberii); assay: Test A postemergence; conditions: Setaria faberi, post-emergence, 240 h, postemergence, read-out: Foxtail, Giant plant response rating; for pest or weed control at 125 g/ha: 125 g ai/ha, visual injury on 0 to 100 scale (0 no effect, 100 complete control), approx. 10 d; for pest or weed control at 500 g/ha: 500 g ai/ha, 0 to 100 scale, 0 is no effect, 100 is complete control
Method in brief: as §1

Kochia (Kochia scoparia) [6] = assay: Test A postemergence; conditions: Bassia scoparia, post-emergence, 240 h, postemergence, read-out: Kochia plant response rating; for pest or weed control at 125 g/ha: 125 g ai/ha, visual injury on 0 to 100 scale (0 no effect, 100 complete control), approx. 10 d; for pest or weed control at 500 g/ha: 500 g ai/ha, 0 to 100 scale, 0 is no effect, 100 is complete control
Method in brief: as §1

[7] = system: wheat (Triticum aestivum); assay: Test A postemergence; conditions: Triticum aestivum, post-emergence, 240 h, postemergence; for plant injury at 125 g/ha: 125 g ai/ha; for plant injury at 500 g/ha: 500 g ai/ha, 0 to 100 scale, 0 is no effect, 100 is complete control
Method in brief: as §1

[8] = system: barnyardgrass (Echinochloa crus-galli); assay: Test A postemergence; conditions: Echinochloa crus-galli, post-emergence, 240 h, postemergence, read-out: Barnyardgrass plant response rating; for pest or weed control at 125 g/ha: 125 g ai/ha, visual injury on 0 to 100 scale (0 no effect, 100 complete control), approx. 10 d; for pest or weed control at 500 g/ha: 500 g ai/ha, 0 to 100 scale, 0 is no effect, 100 is complete control
Method in brief: as §1

[9] = system: ragweed (common ragweed, Ambrosia elatior); assay: Test A preemergence; conditions: Ambrosia artemisiifolia, pre-emergence, 240 h, preemergence, 0 to 100 scale where 0 is no effect and 100 is complete control, read-out: Ragweed plant response rating; for pest or weed control at 125 g/ha: 125 g ai/ha, approx. 10 d; for pest or weed control at 500 g/ha: 500 g ai/ha
Method in brief: as §1

[10] = system: ryegrass, Italian (Italian ryegrass, Lolium multiflorum); assay: Test A preemergence; conditions: Lolium multiflorum, pre-emergence, 240 h, preemergence, 0 to 100 scale where 0 is no effect and 100 is complete control, read-out: Ryegrass, Italian plant response rating; for pest or weed control at 125 g/ha: 125 g ai/ha, approx. 10 d; for pest or weed control at 500 g/ha: 500 g ai/ha
Method in brief: as §1

[11] = system: pigweed (Amaranthus retroflexus); assay: Test A preemergence; conditions: Amaranthus retroflexus, pre-emergence, 240 h, preemergence, 0 to 100 scale where 0 is no effect and 100 is complete control, read-out: Pigweed plant response rating; for pest or weed control at 125 g/ha: 125 g ai/ha, approx. 10 d; for pest or weed control at 500 g/ha: 500 g ai/ha
[12] = system: giant foxtail (Setaria faberii); assay: Test A preemergence; conditions: Setaria faberi, pre-emergence, 240 h, preemergence, 0 to 100 scale where 0 is no effect and 100 is complete control, read-out: Foxtail, Giant plant response rating; for pest or weed control at 125 g/ha: 125 g ai/ha, approx. 10 d; for pest or weed control at 500 g/ha: 500 g ai/ha
Method in brief: as §1

Kochia (Kochia scoparia) [13] = assay: Test A preemergence; conditions: Bassia scoparia, pre-emergence, 240 h, preemergence, 0 to 100 scale where 0 is no effect and 100 is complete control, read-out: Kochia plant response rating; for pest or weed control at 125 g/ha: 125 g ai/ha, approx. 10 d; for pest or weed control at 500 g/ha: 500 g ai/ha
Method in brief: as §1

[14] = system: barnyardgrass (Echinochloa crus-galli); assay: Test A preemergence; conditions: Echinochloa crus-galli, pre-emergence, 240 h, preemergence, 0 to 100 scale where 0 is no effect and 100 is complete control, read-out: Barnyardgrass plant response rating; for pest or weed control at 125 g/ha: 125 g ai/ha, approx. 10 d; for pest or weed control at 500 g/ha: 500 g ai/ha
Method in brief: as §1

[15] = read-out: Ragweed plant response rating
[16] = read-out: Ryegrass, Italian plant response rating
[17] = read-out: Wheat plant response rating

Row | SMILES | pest or weed control at 500 g/ha [1, 15] [%] | pest or weed control at 125 g/ha [2] [%] | pest or weed control at 500 g/ha [2] [%] | pest or weed control at 500 g/ha [3, 16] [%] | plant injury at 125 g/ha (corn (Zea mays)) [%] | plant injury at 500 g/ha (corn (Zea mays)) [%] | pest or weed control at 125 g/ha [4] [%] | pest or weed control at 500 g/ha [4] [%] | pest or weed control at 125 g/ha [5] [%] | pest or weed control at 500 g/ha [5] [%] | pest or weed control at 125 g/ha (Kochia (Kochia scoparia) [6]) [%] | pest or weed control at 500 g/ha (Kochia (Kochia scoparia) [6]) [%] | plant injury at 500 g/ha [7, 17] [%] | pest or weed control at 125 g/ha [8] [%] | pest or weed control at 500 g/ha [8] [%] | pest or weed control at 125 g/ha [9] [%] | pest or weed control at 500 g/ha [9] [%] | pest or weed control at 125 g/ha [10] [%] | pest or weed control at 500 g/ha [10] [%] | pest or weed control at 125 g/ha [11] [%] | also measured
1 | O=C1NC[C@H](c2ccc3c(c2)OCO3)[C@H]1C(=O)Nc1cccc(F)c1C(F)(F)F [Compound 1127] | 0 | 0 | 20 | 0 | 0 | 0 | 0 | 40 | 0 | 50 | 0 | 0 | 0 | 0 | 40 | 0 | 0 | 0 | 0 | 0 | pest or weed control at 125 g/ha ([1]; visual injury on 0 to 100 scale (0 no effect, 100 complete control), approx. 10 d, read-out: Ragweed plant response rating): 0%; pest or weed control at 125 g/ha ([3]; visual injury on 0 to 100 scale (0 no effect, 100 complete control), approx. 10 d, read-out: Ryegrass, Italian plant response rating): 0%; plant injury at 125 g/ha ([7]; visual injury on 0 to 100 scale (0 no effect, 100 complete control), approx. 10 d, read-out: Wheat plant response rating): 0%; pest or weed control at 500 g/ha [11]: 0%; pest or weed control at 125 g/ha [12]: 0%; pest or weed control at 500 g/ha [12]: 70%; pest or weed control at 125 g/ha (Kochia (Kochia scoparia) [13]): 0%; pest or weed control at 500 g/ha (Kochia (Kochia scoparia) [13]): 0%; pest or weed control at 125 g/ha [14]: 0%; pest or weed control at 500 g/ha [14]: 30%
2 | CN1C[C@H](c2ccc(F)c(F)c2)[C@@H](C(=S)Nc2ccccc2F)C1=O (racemic) [Compound 1153] | 0 | 0 | 30 | 0 | 0 | 0 | 30 | 40 | 60 | 90 | 0 | 0 | 0 | 90 | 90 | 0 | 0 | 30 | 50 | 0 | pest or weed control at 125 g/ha ([1]; visual injury vs untreated controls after approx. 10 d, 0 = no effect, 100 = complete control, read-out: Ragweed plant response rating (0 to 100 scale)): 0%; pest or weed control at 125 g/ha ([3]; visual injury vs untreated controls after approx. 10 d, 0 = no effect, 100 = complete control, read-out: Ryegrass, Italian plant response rating (0 to 100 scale)): 0%; plant injury at 125 g/ha ([7]; visual injury vs untreated controls after approx. 10 d, 0 = no effect, 100 = complete control, read-out: Wheat plant response rating (0 to 100 scale)): 0%; pest or weed control at 500 g/ha [11]: 0%; pest or weed control at 125 g/ha [12]: 90%; pest or weed control at 500 g/ha [12]: 90%; pest or weed control at 125 g/ha (Kochia (Kochia scoparia) [13]): 60%; pest or weed control at 500 g/ha (Kochia (Kochia scoparia) [13]): 70%; pest or weed control at 125 g/ha [14]: 80%; pest or weed control at 500 g/ha [14]: 90%
